Assay: gradient 5% acetonitrile 3 min, to 50% in 2 min, to 85% in 15 min, held 3 min, 100 µL/min
Conditions: column: Zorbax Extend-C18 2.1 x 50 mm; eluents: water / acetonitrile, 0.1% formic acid
Method in brief: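 The system's dead and dwell volumes were 40 μL and 900 μL, with a Zorbax Extend-C18 column (2.1 × 50 mm, 1.8 μm) run at 100 μL/min in water and acetonitrile containing 0.1% formic acid each. Pure standards were analyzed in mixtures of ~100 molecules by HPLC–quadrupole time-of-flight mass spectrometry in positive and negative ionization mode. Retention time was assigned from computationally picked, manually inspected adduct peaks.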

Row | Structure (SMILES) | RP-LC retention time [s]
1 | Cc1sc(C)c(S(=O)(=O)Nc2cccc(Cl)c2)c1-c1cc(C(F)(F)F)on1 | 1190
2 | CCCN1CCN(c2cc(C(=O)O)c3cc(NC(=O)c4ccc(Br)cc4)ccc3n2)CC1 | 628
3 | Cc1ccc2c(c1)N(S(C)(=O)=O)CCC(C(=O)NCc1ccco1)O2 (stereo unspecified) | 793
4 | O=S(=O)(Cc1cccc(Cl)c1)N1CCc2nc(-c3ccc(F)cc3)ncc2C1 | 1110
5 | CC(C)(C)S(=O)(=O)c1ccc(N2CCN(Cc3ccccc3)CC2)nn1 | 566
6 | CCn1c(C)c(CCC(=O)Nc2ccc(C)c(C)c2)c(=O)n2nc(-c3ccccc3)nc12 | 935
7 | CCn1cnc(S(=O)(=O)N2CCC(C(=O)Nc3cc(OC)cc(OC)c3)CC2)c1 | 704
8 | CS(=O)(=O)c1ccc2nc(NC(=O)CN3C(=O)CCC3=O)sc2c1 | 582
9 | O=C(NC1CCCC1)c1ccc2c(c1)nc1n2CCN(C2CCCCC2)C1=O | 763
10 | Cc1nc(-c2ccncc2)nc2c1CC(=O)N2C1CCCC1 | 703
11 | Cc1cccc(-c2noc(Cc3nc(-c4ccc5c(c4)OCO5)cs3)n2)c1 | 1200
12 | COc1ccc(NC(=O)Cn2c(C)cc(-c3nnc(C)o3)c2C)cc1 | 732
13 | Cc1nnc2ccc(S(=O)(=O)N(Cc3ccccc3)c3ccc(Cl)cc3)cn12 | 930
14 | Cn1nc(N2CCCC(NC(=O)c3cc4cc(Cl)ccc4[nH]3)C2)ccc1=O (stereo unspecified) | 827
15 | CCn1cc(S(=O)(=O)NCc2cccc(Cl)c2)c2cccnc21 | 862
16 | CCNC(=O)CCc1nc2ccccc2n(CC(=O)Nc2ccc(C(=O)OCC)cc2)c1=O | 764
17 | Cc1cc(C)cc(NC(=O)c2csc(-c3cn(C)c4ncccc34)n2)c1 | 1050
18 | CCN1C(=O)COc2ccc(-c3csc(NC(=O)c4ccc(Cl)cc4)n3)cc21 | 1090
19 | CCn1c(N2CCCC(C(=O)NCc3ccccc3F)C2)cc(=O)n(C)c1=O (stereo unspecified) | 776
20 | CCCc1cc(N2CCN(C(=O)c3cccc(C#N)c3)CC2)nc2nncn12 | 604
21 | CCOC(=O)c1c(C)c(CCC(=O)NCc2ccco2)n(C)c1C | 792
22 | Cc1ccccc1-c1noc(Cn2ccn(-c3ccccc3)c(=O)c2=O)n1 | 834

Row | Structure (SMILES) | RP-LC retention time [s]
23 | C=CCNC(=O)C1CCN(S(=O)(=O)c2cc(Cl)ccc2OCC)CC1 | 767
24 | CC1CCC(NC(=O)c2sc3ncccc3c2-n2cccc2)CC1 (stereo unspecified) | 1200
25 | CN(c1nc(-c2ccc(C(C)(C)C)cc2)nc2ccccc12)C1CCCCC1 | 1130
26 | Cc1ccc(C2Cn3nnc(-c4nc(C5CCCCC5)no4)c3CO2)c(C)c1 (stereo unspecified) | 1390
27 | CCCn1ccc2sc(C)c(C(=O)NCc3ccccc3OCC)c2c1=O | 982
28 | COc1cc(/C=C(\C)c2ccc3c(c2)OCO3)cc(OC)c1OC | 1030
29 | CC1=C(C(=O)Nc2ccccc2C(=O)NCCN2CCN(C)CC2)SCCO1 | 599
30 | CCC(=O)Nc1ccc(-n2cnc(C(=O)N3CCN(c4ccc(C)cc4C)CC3)c2)nc1 | 865
31 | O=C(CN1C(=O)COc2ccccc2C1=O)c1cccc([N+](=O)[O-])c1 | 863
32 | Cc1ccccc1NS(=O)(=O)c1c[nH]c2ncccc12 | 728
33 | CN(C)C(=O)c1ccc2c(c1)N(CC(=O)NCc1ccc(Cl)cc1)C(=O)C1CCCCN21 (stereo unspecified) | 792
34 | O=C1c2cccc3cccc(c23)C(=O)N1CC(=O)N1CCCc2ccccc21 | 593
35 | CC(C)C(=O)N1CC(c2nc(-c3ccc(F)cc3)no2)C2(CCOCC2)C1 (stereo unspecified) | 857
36 | Cc1cccc(Oc2coc3cc(OC(=O)c4ccncc4)ccc3c2=O)c1 | 984
37 | O=C(/C=C/c1ccccc1)Nc1nc(-c2ccccc2)cs1 | 1070
38 | O=c1cc(-c2cccnc2)oc2c1ccc1ccccc12 | 979
39 | CC(C)c1noc(C2CCCCN2Cc2nc(-c3ccccn3)no2)n1 (stereo unspecified) | 824
40 | CCN1CCN(C(=O)Nc2ccc(Br)cc2F)c2cccnc21 | 659
41 | O=C(NCC(c1cccnc1)N1CCN(Cc2ccccc2)CC1)Nc1ccccc1Cl (stereo unspecified) | 554
42 | CCc1cccc(C)c1NC(=O)Cn1nc2n(c1=O)CCCC2 | 717
43 | CN(CCNC(=O)c1ccc2c(c1)N(S(C)(=O)=O)CC2)C1CCCCC1 | 610
44 | N#Cc1ccc(NC(=O)C2CCN(S(=O)(=O)c3cc(-c4noc(C5CCC5)n4)cs3)CC2)cc1 | 1050

Row | Structure (SMILES) | RP-LC retention time [s]
45 | CCc1nc2cc(-c3noc(-c4ccc(OC)cc4OC)n3)ccc2o1 | 1080
46 | CCCNC(=O)C1CCCN(c2nc(C)nc3onc(C)c23)C1 (stereo unspecified) | 690
47 | COc1cc(CCNCc2c(C(=O)O)n(C)c3ccccc23)cc(OC)c1OC | 656
48 | Cc1ccc(-c2ccc(N3CCCC(C(=O)NC4CCCC4)C3)nn2)cc1C (stereo unspecified) | 738
49 | COc1ccc(C)cc1NC(=O)C1CCN(S(=O)(=O)c2ccc3c(c2)CCCC(=O)N3)CC1 | 816
50 | CCOC(=O)c1noc2ncnc(N(C)c3cccc(Cl)c3)c12 | 965
51 | CC(C)c1noc(CC2CCN(C(=O)c3ccsc3)CC2)n1 | 819
52 | CCCNC(=O)C1CCCN(c2nc3ncn(CC(=O)Nc4ccccc4OCC)c(=O)c3s2)C1 (stereo unspecified) | 742
53 | O=C(c1csc(Nc2ccccc2)n1)N1CCN(c2ccccc2F)CC1 | 911
54 | O=C1/C(=C/c2ccc(Cl)c(Cl)c2)CN(C(=O)CCN2CCOCC2)C/C1=C\c1ccc(Cl)c(Cl)c1 | 881
55 | O=C(C1CC1)N1CCc2ccc(NS(=O)(=O)C3CCCCC3)cc21 | 830
56 | Cc1nc2cc(-c3noc(Cc4ccc(Cl)cc4)n3)ccc2o1 | 1070
57 | CC(=O)Nc1ccc(-c2nc(-c3ccc4c(c3)oc(=O)n4C)no2)cc1 | 819
58 | COC(=O)c1sc2cccc(F)c2c1S(=O)(=O)N1CCC(C(N)=O)(N2CCCCC2)CC1 | 649
59 | O=C(c1ccco1)N1CCN(C(=O)c2nnn3c2COC(c2ccc(Cl)cc2)C3)CC1 (stereo unspecified) | 838
60 | Cc1cccc(NC(=O)CC2COc3ccccc3NC2=O)c1C (stereo unspecified) | 736
61 | Cn1c(=O)cnc2ccc(N3CCOCC3)nc21 | 662
62 | COc1ccc(Cc2nc(-c3ccc4c(c3)ncn4CCN3CCCCC3)no2)cc1 | 626
63 | CCOC(=O)c1c(C)[nH]c(C(=O)N2CCC(CC(=O)N3CCN(c4ccccc4)CC3)CC2)c1C | 836
64 | CC(C)CN1CCN(C(=O)c2ccc(-c3cccs3)nc2)CC1 | 602
65 | O=C(Cn1nc2c3ccccc3ncn2c1=O)Nc1ccc2c(c1)OCO2 | 665
66 | O=C(NCc1c(F)cccc1Cl)C(=O)c1c[nH]c2ccccc12 | 931

Reference: the METLIN SMRT retention time set (Domingo-Almenara et al. 2019)
